Test results: patent US11701354B2, “Pyrazolo[3,4-b]pyrazine derivatives as SHP2 phosphatase inhibitors” (Relay Therapeutics, Inc., priority 2017, dated 2023)

These molecules were tested against SHP2 (Homo sapiens (Human), UniProt Q06124) (assay: SHP2 Allosteric Inhibition Assay (DiFMUP prompt fluorescence)). Conditions: 0.25 nM SHP2 activated with 0.5 μM peptide IRS1_pY1172(dPEG8)pY1222; substrate DiFMUP 100 μM.
Sequence of SHP2 (Q06124 whole entry): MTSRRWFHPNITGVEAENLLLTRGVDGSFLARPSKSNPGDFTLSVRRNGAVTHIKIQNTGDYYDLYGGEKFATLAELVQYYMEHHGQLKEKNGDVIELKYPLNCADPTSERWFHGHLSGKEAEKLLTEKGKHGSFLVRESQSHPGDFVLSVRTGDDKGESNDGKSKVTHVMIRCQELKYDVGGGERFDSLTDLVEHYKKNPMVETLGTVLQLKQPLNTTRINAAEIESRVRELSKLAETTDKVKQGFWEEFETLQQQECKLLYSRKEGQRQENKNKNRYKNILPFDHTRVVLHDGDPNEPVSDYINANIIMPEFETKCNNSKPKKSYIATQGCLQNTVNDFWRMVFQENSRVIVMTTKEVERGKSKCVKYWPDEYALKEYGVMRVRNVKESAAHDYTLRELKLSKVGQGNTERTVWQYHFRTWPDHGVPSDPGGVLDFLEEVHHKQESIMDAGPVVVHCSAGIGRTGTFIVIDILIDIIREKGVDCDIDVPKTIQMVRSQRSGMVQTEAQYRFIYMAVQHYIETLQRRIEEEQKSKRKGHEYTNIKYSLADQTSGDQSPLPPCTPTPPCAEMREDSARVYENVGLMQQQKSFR
Type: biochemical
From the text: SHP2 Allosteric Inhibition Assay.
SHP2 is allosterically activated through binding of bis-tyrosyl-phorphorylated peptides to its Src Homology 2 (SH2) domains. The latter activation step leads to the release of the auto-inhibitory interface of SHP2, which in turn renders the SHP2 protein tyrosine phosphatase (PTP) active and available for substrate recognition and reaction catalysis. The catalytic activity of SHP2 was monitored using the surrogate substrate DiFMUP in a prompt fluorescence assay format.
More specifically, the phosphatase reactions were performed at room temperature in 96-well black polystyrene plate, flat bottom, low flange, non-binding surface (Corning, Cat #3575) using a final reaction volume of 50 μl and the following assay buffer conditions: 60 mM HEPES, pH 7.2, 75 mM NaCl, 75 mM KCl, 1 mM EDTA 0.005% Brij-35, 5 mM DTT.
The inhibition of SHP2 by compounds of the disclosure (concentrations varying from 0.003-100 μM) was monitored using an assay in which 0.25 nM of SHP2 was incubated with of 0.5 μM of peptide IRSl_pY1172(dPEG8)pY1222 (sequence: H2N-LN(pY)IDLDLV(dPEG8)LST(pY)ASINFQK-amide). After 30-60 minutes incubation at 25° C. the surrogate substrate DiFMUP (Invitrogen, cat #D6567, 100 μM final) was added to the reaction and the conversion of DiFMUP to 6,8-difluoro-7-hydroxyl-4-methylcoumarin (DiFMU) was monitored continuously for 10 minutes with excitation at 355 nm and emission at 460 nm using a microplate reader (PolarStar, BMG). The inhibitor dose response curves were analyzed using normalized IC50 regression curve fitting with control based normalization.
Biochemical assay results for compounds of the disclosure are shown in examples and Table 1. In Table 1, A means an IC50 of less than 1 μM: B means an IC50 equal to 1 μM but less than 10 μM; and C means an IC50 of 10 μM or more.
For `CN(c1cnc2c(-c3cccc(Cl)c3F)n[nH]c2n1)[C@H]1CCC[C@H]1N` (mixture of isomers) [Example 1], the IC50 was 1000 to 10000 nM. For `N[C@@H]1CCCC[C@H]1Nc1cnc2c(-c3cccc(Cl)c3F)n[nH]c2n1` (mixture of isomers) [Example 5], the IC50 was 1000 to 10000 nM. With `NC[C@H]1CCCC[C@H]1Nc1cnc2c(-c3cccc(Cl)c3F)n[nH]c2n1` (mixture of isomers) [Example 13] the IC50 was < 1000 nM. In the case of `NC[C@H]1CCCC[C@@H]1Nc1cnc2c(-c3cccc(Cl)c3F)n[nH]c2n1` (mixture of isomers) [Example 14], the IC50 is reported as < 1000 nM. `CN(c1cnc2c(-c3cccc(Cl)c3F)n[nH]c2n1)[C@H]1CCCC[C@@H]1N` (mixture of isomers) [Example 19] was tested, and the IC50 was < 1000 nM. `CN(c1cnc2c(-c3cccc(Cl)c3F)n[nH]c2n1)[C@H]1CCCC[C@H]1N` (mixture of isomers) [Example 20] was tested, and the IC50 was < 1000 nM. In the case of `N[C@@H]1CCCC[C@@H]1Nc1cnc2c(-c3cccc(Cl)c3F)n[nH]c2n1` (single isomer, unassigned) [Example 7], the IC50 is reported as 1000 to 10000 nM. With `CN(c1cnc2c(N3CCCc4ncccc43)n[nH]c2n1)[C@@H]1CCC[C@@H]1N` (single isomer, unassigned) [Example 8] the IC50 was 1000 to 10000 nM. With `CN(c1cnc2c(N3CCCc4ncccc43)n[nH]c2n1)[C@@H]1COC[C@@H]1N` (single isomer, unassigned) [Example 10] the IC50 was ≥ 10000 nM. In the case of `CN(c1cnc2c(N3CCCc4ncccc43)n[nH]c2n1)[C@H]1COC[C@H]1N` (single isomer, unassigned) [Example 11], the IC50 is reported as ≥ 10000 nM. With `NC[C@@H]1CCCC[C@@H]1Nc1cnc2c(-c3cccc(Cl)c3F)n[nH]c2n1` (single isomer, unassigned) [Example 15] the IC50 was < 1000 nM. `NC[C@H]1CCCC[C@H]1Nc1cnc2c(-c3cccc(Cl)c3F)n[nH]c2n1` (single isomer, unassigned) [Example 17] gave an IC50 of 1000 to 10000 nM. Molecule `NC[C@@H]1CCCC[C@H]1Nc1cnc2c(-c3cccc(Cl)c3F)n[nH]c2n1` (single isomer, unassigned) [Example 18] has an IC50 of 1000 to 10000 nM. Work on `CN(c1cnc2c(-c3cccc(Cl)c3F)n[nH]c2n1)[C@H]1CCCC[C@@H]1N` (single isomer, unassigned) [Example 23] yielded an IC50 of 1000 to 10000 nM. In the case of `CN(c1cnc2c(-c3cccc(Cl)c3F)n[nH]c2n1)[C@@H]1CCCC[C@H]1N` (single isomer, unassigned) [Example 24], the IC50 is reported as < 1000 nM. With `CN(c1cnc2c(-c3cccc(Cl)c3F)n[nH]c2n1)[C@@H]1CCC[C@@H]1CN` (single isomer, unassigned) [Example 26] the IC50 was < 1000 nM. `CN(c1cnc2c(-c3cccc(Cl)c3F)n[nH]c2n1)[C@H]1CCC[C@@H]1CN` (single isomer, unassigned) [Example 27] was tested, and the IC50 was < 1000 nM. With `CN(c1cnc2c(-c3cccc(Cl)c3F)n[nH]c2n1)[C@H]1CCC[C@H]1CN` (single isomer, unassigned) [Example 28] the IC50 was < 1000 nM. For `CN(c1cnc2c(-c3cccc(Cl)c3F)n[nH]c2n1)[C@@H]1CCC[C@H]1CN` (single isomer, unassigned) [Example 29], the IC50 was < 1000 nM. `CN(C[C@@H]1CCC[C@H]1N)c1cnc2c(N3CCCc4ncccc43)n[nH]c2n1` (single isomer, unassigned) [Example 31] was tested, and the IC50 was ≥ 10000 nM. In the case of `CN(C[C@H]1CCC[C@@H]1N)c1cnc2c(N3CCCc4ncccc43)n[nH]c2n1` (single isomer, unassigned) [Example 32], the IC50 is reported as ≥ 10000 nM. For `CN(c1cnc2c(N3CCCc4ncccc43)n[nH]c2n1)[C@@H]1CCCC[C@@H]1N` (single isomer, unassigned) [Example 34], the IC50 was 1000 to 10000 nM. With `CN(c1cnc2c(-c3cccc(Cl)c3F)n[nH]c2n1)[C@@H]1CCC[C@H]1N` [Example 2] the IC50 was < 1000 nM. `CN(c1cnc2c(-c3cccc(Cl)c3F)n[nH]c2n1)[C@H]1CCC[C@@H]1N` [Example 3] was tested, and the IC50 was < 1000 nM. `CN(c1cnc2c(-c3cccc(Cl)c3F)n[nH]c2n1)[C@@H]1CCC[C@@H]1N` [Example 4] was tested, and the IC50 was < 1000 nM. With `N[C@H]1CCCC[C@@H]1Nc1cnc2c(-c3cccc(Cl)c3F)n[nH]c2n1` [Example 6] the IC50 was 1000 to 10000 nM. With `CN(c1cnc2c(N3CCCc4ncccc43)n[nH]c2n1)[C@H]1CCC[C@H]1N` [Example 9] the IC50 was ≥ 10000 nM. For `CN(c1cnc2c(-c3cccc(Cl)c3F)n[nH]c2n1)[C@@H]1CCCC[C@@H]1N` [Example 21], the IC50 was < 1000 nM. For `CN(C[C@H]1CC[C@H](N)C1)c1cnc2c(-c3cccc(Cl)c3F)n[nH]c2n1` [Example 25], the IC50 was < 1000 nM. With `CN(c1cnc2c(-c3ccnc(Cl)c3F)n[nH]c2n1)[C@@H]1CCCC[C@@H]1N` [Example 30] the IC50 was < 1000 nM. With `CN(c1cnc2c(N3CCCc4ncccc43)n[nH]c2n1)[C@H]1CCCC[C@H]1N` [Example 33] the IC50 was ≥ 10000 nM. For `CN(c1cnc2c(N3CCCc4ncccc43)n[nH]c2n1)[C@@H]1COCC[C@@H]1N` [Example 35], the IC50 was ≥ 10000 nM. Work on `CN(c1cnc2c(N3CCCc4ncccc43)n[nH]c2n1)[C@@H]1CCOC[C@@H]1N` [Example 36] yielded an IC50 of 1000 to 10000 nM. In the case of `CN(c1cnc2c(N3CCCc4ncccc43)n[nH]c2n1)[C@H]1CCOC[C@H]1N` [Example 37], the IC50 is reported as ≥ 10000 nM. For `CN(c1cnc2c(-c3cccc(Cl)c3F)n[nH]c2n1)[C@@H]1CCCC[C@H]1CN` [Example 38], the IC50 was < 1000 nM. In the case of `CN(c1cnc2c(-c3cccc(Cl)c3F)n[nH]c2n1)[C@H]1CCCC[C@H]1CN` [Example 39], the IC50 is reported as < 1000 nM. In the case of `CN(c1cnc2c(-c3cccc(Cl)c3F)n[nH]c2n1)[C@H]1CCCC[C@@H]1CN` [Example 40], the IC50 is reported as < 1000 nM. In the case of `CN(c1cnc2c(-c3cccc(Cl)c3F)n[nH]c2n1)[C@@H]1CCCC[C@@H]1CN` [Example 41], the IC50 is reported as < 1000 nM. `CN(c1cnc2c(Sc3ccccc3Cl)n[nH]c2n1)[C@@H]1CCCC[C@@H]1N` [Example 42] was tested, and the IC50 was < 1000 nM. In the case of `CN(c1cnc2c(Sc3ccnc4[nH]ccc34)n[nH]c2n1)[C@@H]1CCCC[C@@H]1N` [Example 43], the IC50 is reported as < 1000 nM. For `CN(c1cnc2c(Oc3ccnc(Cl)c3Cl)n[nH]c2n1)[C@H]1CCCC[C@H]1N` [Example 44], the IC50 was 1000 to 10000 nM. `CN(c1cnc2c(Oc3ccnc(Cl)c3Cl)n[nH]c2n1)[C@@H]1CCCC[C@@H]1N` [Example 45] was tested, and the IC50 was < 1000 nM. For `CN(c1cnc2c(N3CCc4c(C(N)=O)cccc43)n[nH]c2n1)[C@@H]1CCCC[C@@H]1N` [Example 46], the IC50 was < 1000 nM.
